This note sets out measurements from patent US20250195530A1, “POLQ INHIBITORS” (ASTRAZENECA AB, priority 2022, published 2025).

For the assay, the system named is DLD-1 BRCA2−/− cells. Briefly: Homologous recombination synthetic lethal inhibition of proliferation, DLD-1 BRCA2-/- (Cell Titre Glo 3D). Format: cell-based. The conditions noted are these: Homo sapiens, DLD-1, DLD-1 BRCA2 −/− cells; mean; read-out: POLQ PD Prolif Lumin BRCA2 −/− mean pIC50 (converted). The gist of the method:
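Isogenic DLD-1 pair; BRCA2−/− seeded 3,000 cells/mL and read day 12, wt seeded 1,500 cells/mL and read day 7. 10-pt titration (top 10 μM, 3-fold), re-fed with compound day 6, 37 °C/5% CO2. CTG 3D endpoint; IC50 at 50% signal loss.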
With `CC1(Oc2ncnc3c2nc(-c2ccc(CC(N)=O)cc2Cl)n3Cc2cc(C(F)(F)F)ccn2)CC1` [Example T36, 2-(3-chloro-4-(6-(1-methylcyclopropoxy)-9-((4-(trifluoromethyl)pyridin-2-yl)methyl)-9H-purin-8-yl)phenyl)acetamide], the IC50 is 501 nM.
As to `CC1(Oc2ncnc3c2nc(-c2ccc(CC(N)=O)cc2Cl)n3Cc2cccnc2C(F)(F)F)CC1` [Example T37, 2-(3-chloro-4-(6-(1-methylcyclopropoxy)-9-((2-(trifluoromethyl)pyridin-3-yl)methyl)-9H-purin-8-yl)phenyl)acetamide], the IC50 is greater than 10000 nM.
As for `CC1(Oc2ncnc3c2nc(-c2ccc(CC(N)=O)cc2Cl)n3Cc2ccc(C(F)(F)F)nc2)CC1` [Example T38, 2-(3-chloro-4-(6-(1-methylcyclopropoxy)-9-((6-(trifluoromethyl)pyridin-3-yl)methyl)-9H-purin-8-yl)phenyl)acetamide], the figure is 6310 nM; as for `CC1(Oc2ncnc3c2nc(-c2ccc(CC(N)=O)cc2Cl)n3Cc2cncc(C#N)c2)CC1` [Example T39, 2-(3-chloro-4-(9-((5-cyanopyridin-3-yl)methyl)-6-(1-methylcyclopropoxy)-9H-purin-8-yl)phenyl)acetamide], 6310 nM; as for `CC1(Oc2ncnc3c2nc(-c2ccc(CC(N)=O)cc2Cl)n3Cc2ccnc(C#N)c2)CC1` [Example T40, 2-(3-chloro-4-(9-((2-cyanopyridin-4-yl)methyl)-6-(1-methylcyclopropoxy)-9H-purin-8-yl)phenyl)acetamide], 5010 nM.
As for `CC1(Oc2ncnc3c2nc(-c2ccc(CC(N)=O)cc2Cl)n3Cc2cccc(F)c2)CC1` [Example T42, 2-(3-chloro-4-(9-(3-fluorobenzyl)-6-(1-methylcyclopropoxy)-9H-purin-8-yl)phenyl)acetamide], the figure is 158 nM; as for `CC1(Oc2ncnc3c2nc(-c2ccc(CC(N)=O)cc2Cl)n3Cc2ccc(F)cc2)CC1` [Example T43, 2-(3-chloro-4-(9-(4-fluorobenzyl)-6-(1-methylcyclopropoxy)-9H-purin-8-yl)phenyl)acetamide], 631 nM; as for `CC1(Oc2ncnc3c2nc(-c2ccc(OCCO)cc2Cl)n3Cc2cc(C(F)(F)F)ccn2)CC1` [Example T44, 2-(3-chloro-4-(6-(1-methylcyclopropoxy)-9-((4-(trifluoromethyl)pyridin-2-yl)methyl)-9H-purin-8-yl)phenoxy)ethan-1-ol], 251 nM.
As for `CC1(Oc2ncnc3c2nc(-c2ccc(CC(N)=O)cc2Cl)n3Cc2cccc(Cl)c2)CC1` [Example T45, 2-(3-chloro-4-(9-(3-chlorobenzyl)-6-(1-methylcyclopropoxy)-9H-purin-8-yl)phenyl)acetamide], the figure is 50.1 nM; as for `CC1(Oc2ncnc3c2nc(-c2ccc(CC(N)=O)cc2Cl)n3CCc2cccc(Br)n2)CC1` [Example T46, 2-(4-(9-(2-(6-bromopyridin-2-yl)ethyl)-6-(1-methylcyclopropoxy)-9H-purin-8-yl)-3-chlorophenyl)acetamide], greater than 10000 nM.
Regarding `Cc1ccnc(Cn2c(-c3ccc(OCC(F)F)cc3Cl)nc3c(OC4(C)CC4)ncnc32)c1` [Example T47, 8-(2-chloro-4-(2,2-difluoroethoxy)phenyl)-6-(1-methylcyclopropoxy)-9-((4-methylpyridin-2-yl)methyl)-9H-purine], the IC50 is 200 nM.
The same measure for `CC1(Oc2ncnc3c2nc(-c2ccc(CC(N)=O)cc2Cl)n3Cc2ccccc2)CC1` [Example T48, 2-(4-(9-benzyl-6-(1-methylcyclopropoxy)-9H-purin-8-yl)-3-chlorophenyl)acetamide]: 200 nM.
As for `CNC(=O)COc1ccc(-c2nc3c(OC4(C)CC4)ncnc3n2Cc2cc(Cl)ccn2)c(Cl)c1` [Example T51, 2-(3-chloro-4-(9-((4-chloropyridin-2-yl)methyl)-6-(1-methylcyclopropoxy)-9H-purin-8-yl)phenoxy)-N-methylacetamide], the figure is 158 nM.
The same measure for `CNC(=O)c1ccc(Cl)c(-c2nc3c(OC4(C)CC4)ncnc3n2Cc2cc(C)ccn2)c1` [Example T54, 4-chloro-N-methyl-3-(6-(1-methylcyclopropoxy)-9-((4-methylpyridin-2-yl)methyl)-9H-purin-8-yl)benzamide]: greater than 10000 nM; for `CNC(=O)c1cccc(-c2nc3c(OC4(C)CC4)ncnc3n2Cc2cc(C)ccn2)c1Cl` [Example T55, 2-chloro-N-methyl-3-(6-(1-methylcyclopropoxy)-9-((4-methylpyridin-2-yl)methyl)-9H-purin-8-yl)benzamide]: 631 nM.
As for `Cc1ccnc(Cn2c(-c3cc(CC(N)=O)ccc3Cl)nc3c(OC4(C)CC4)ncnc32)c1` [Example T57, 2-(4-chloro-3-(6-(1-methylcyclopropoxy)-9-((4-methylpyridin-2-yl)methyl)-9H-purin-8-yl)phenyl)acetamide], the IC50 was greater than 10000 nM.
The same measure for `Cc1cc(Cn2c(-c3ccc(CC(N)=O)cc3Cl)nc3c(OC4(C)CC4)ncnc32)ccn1` [Example T58, 2-(3-chloro-4-(6-(1-methylcyclopropoxy)-9-((2-methylpyridin-4-yl)methyl)-9H-purin-8-yl)phenyl)acetamide]: greater than 10000 nM; for `Cc1cccc(Cn2c(-c3ccc(CC(N)=O)cc3Cl)nc3c(OC4(C)CC4)ncnc32)n1` [Example T59, 2-(3-chloro-4-(6-(1-methylcyclopropoxy)-9-((6-methylpyridin-2-yl)methyl)-9H-purin-8-yl)phenyl)acetamide]: 2510 nM.
The same measure for `Cc1ncccc1Cn1c(-c2ccc(CC(N)=O)cc2Cl)nc2c(OC3(C)CC3)ncnc21` [Example T60, 2-(3-chloro-4-(6-(1-methylcyclopropoxy)-9-((2-methylpyridin-3-yl)methyl)-9H-purin-8-yl)phenyl)acetamide]: 10000 nM; for `Cc1ccnc(Cn2c(-c3ccc(OCC(N)=O)cc3Cl)nc3c(OC4(C)CC4)ncnc32)c1` [Example T61, 2-(3-chloro-4-(6-(1-methylcyclopropoxy)-9-((4-methylpyridin-2-yl)methyl)-9H-purin-8-yl)phenoxy)acetamide]: 251 nM; for `COC(=O)Nc1ccc(-c2nc3c(OC4(C)CC4)ncnc3n2Cc2cc(C)ccn2)c(Cl)c1` [Example T62, methyl (3-chloro-4-(6-(1-methylcyclopropoxy)-9-((4-methylpyridin-2-yl)methyl)-9H-purin-8-yl)phenyl)carbamate]: 251 nM.
In the case of `COc1ccnc(Cn2c(-c3ccc(CC(N)=O)cc3Cl)nc3c(OC4(C)CC4)ncnc32)c1` [Example T63, 2-(3-chloro-4-(9-((4-methoxypyridin-2-yl)methyl)-6-(1-methylcyclopropoxy)-9H-purin-8-yl)phenyl)acetamide], the IC50 was 1000 nM.
As for `Cc1ccnc(Cn2c(-c3ccc(CCO)cc3Cl)nc3c(OC4(C)CC4)ncnc32)c1` [Example T65, 2-(3-chloro-4-(6-(1-methylcyclopropoxy)-9-((4-methylpyridin-2-yl)methyl)-9H-purin-8-yl)phenyl)ethan-1-ol], the figure is 251 nM; as for `CNC(=O)Nc1ccc(-c2nc3c(OC4(C)CC4)ncnc3n2Cc2cc(C)ccn2)c(Cl)c1` [Example T66, 1-(3-chloro-4-(6-(1-methylcyclopropoxy)-9-((4-methylpyridin-2-yl)methyl)-9H-purin-8-yl)phenyl)-3-methylurea], 398 nM; as for `CC1(Oc2ncnc3c2nc(-c2ccc(CC(N)=O)cc2Cl)n3Cc2noc(C(C)(C)C)n2)CC1` [Example T71, 2-(4-(9-((5-(tert-butyl)-1,2,4-oxadiazol-3-yl)methyl)-6-(1-methylcyclopropoxy)-9H-purin-8-yl)-3-chlorophenyl)acetamide], 7940 nM.
As for `CC1(Oc2ncnc3c2nc(-c2ccc(CC(N)=O)cc2Cl)n3Cc2cc(C#N)ccc2F)CC1` [Example T77, 2-(3-chloro-4-(9-(5-cyano-2-fluorobenzyl)-6-(1-methylcyclopropoxy)-9H-purin-8-yl)phenyl)acetamide], the figure is 158 nM; as for `CC1(Oc2ncnc3c2nc(-c2ccc(CC(N)=O)cc2Cl)n3Cc2ccc(F)cc2C#N)CC1` [Example T78, 2-(3-chloro-4-(9-(2-cyano-4-fluorobenzyl)-6-(1-methylcyclopropoxy)-9H-purin-8-yl)phenyl)acetamide], 5010 nM.
`CC1(Oc2ncnc3c2nc(-c2ccc(CC(N)=O)cc2Cl)n3Cc2cc(F)ccc2C#N)CC1` [Example T79, 2-(3-chloro-4-(9-(2-cyano-5-fluorobenzyl)-6-(1-methylcyclopropoxy)-9H-purin-8-yl)phenyl)acetamide]: the IC50 was 158 nM.
As for `CC1(Oc2ncnc3c2nc(-c2ccc(CC(N)=O)cc2Cl)n3Cc2cccc(C#N)c2)CC1` [Example T81, 2-(3-chloro-4-(9-(3-cyanobenzyl)-6-(1-methylcyclopropoxy)-9H-purin-8-yl)phenyl)acetamide], the figure is 200 nM.
As for `CC1(Oc2ncnc3c2nc(-c2ccc(CC(N)=O)cc2Cl)n3Cc2ccccc2C#N)CC1` [Example T82, 2-(3-chloro-4-(9-(2-cyanobenzyl)-6-(1-methylcyclopropoxy)-9H-purin-8-yl)phenyl)acetamide], the figure is 316 nM; as for `CC1(Oc2ncnc3c2nc(-c2ccc(CC(N)=O)cc2Cl)n3Cc2ccc(C#N)cc2)CC1` [Example T83, 2-(3-chloro-4-(9-(4-cyanobenzyl)-6-(1-methylcyclopropoxy)-9H-purin-8-yl)phenyl)acetamide], 7940 nM.
As for `CC1(Oc2ncnc3c2nc(-c2ccc(OCCC(=O)O)cc2Cl)n3Cc2ccc(Cl)c(Cl)c2)CC1` [Example T84, 3-(3-chloro-4-(9-(3,4-dichlorobenzyl)-6-(1-methylcyclopropoxy)-9H-purin-8-yl)phenoxy)propanoic acid], the figure is 2000 nM.
